{"source": "patent US20220016154A1", "about": "“TREATMENT OF NEURONAL MOSAICISM IN DEMENTIA” (Crownview Medical Group, Inc., priority 2020, published 2022)", "key": {"[1]": {"system": "patient with advanced dementia", "assay": "Case report: dementia patient administered a regimen of ZDV (Retrovir), clinical observation and SMMSE", "assay_type": "in vivo, human", "conditions": "one patient, SMMSE 2 to 4 before treatment; after 8 weeks of treatment"}, "HIV-associated dementia": {"system": "HIV-associated dementia", "conditions": "HIV patients, antiretroviral therapy; cited from earlier work"}}, "data": [{"smiles": "Cc1cn([C@H]2C[C@H](N=[N+]=[N-])[C@@H](CO)O2)c(=O)[nH]c1=O", "note": "[Zidovudine]", "values": [{"measurement": "SMMSE scores", "setting": "[1]", "result": "not consistently improved"}, {"measurement": "ability to remember and communicate about where they lived", "setting": "[1]", "result": "specific improvements in their ability to remember and communicate about where they lived"}, {"measurement": "alertness and awareness of surroundings", "setting": "[1]", "result": "more alert and aware of their surroundings"}, {"measurement": "progression of HIV-associated dementia", "setting": "HIV-associated dementia", "result": "slowed"}]}]}
